Test results reported in PubChem BioAssay AID624383 (Sanford-Burnham Center for Chemical Genomics, 2012).
pIC50: −log10 of the molar value. Calls of active or inactive are those of the source. How the calls were made is not given here.

target: Small ubiquitin-related modifier 1 (Homo sapiens) (UniProt P63165); experiment: SUMO1 protein-protein binding blockers, potency – biochemical, FRET, dose response (AID 624383); conditions: SUMO1 protein-protein interaction, in vitro
Sequence (P63165 whole entry, looked up): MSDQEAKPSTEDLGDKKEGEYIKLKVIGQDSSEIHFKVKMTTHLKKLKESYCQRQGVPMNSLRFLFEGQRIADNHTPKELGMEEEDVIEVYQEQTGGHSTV

Compound	pIC50	IC50
CCN(CC)P(=O)(NC(=O)C(Cl)(Cl)Cl)N(CC)CC.[Cl-].[Cl-].[Cl-].[Nd+3]	6.22	–
C[c-]1[c-](C)[c-](C)[c-](C)[c-]1C.[Fe].c1cc2nccc(N3CCCC3)[c-]2c1 (stereo not drawn)	–	inactive
C=Cc1c(C)c2cc3[nH]c(cc4nc(cc5nc(cc1[nH]2)C(C)=C5CCC(=O)O)C(CCC(=O)O)=C4C)c(C)c3C=C	5.74	–
